Values quoted from earlier work, collected in patent publication US20120164210A1, “PHOTODYNAMIC THERAPEUTIC AGENT HAVING CELL-SPECIFIC ACTIVE ACCUMULATION PROPERTIES” (The University of Tokyo, priority 2008, published 2012).

What was measured:
tumor tissue = conditions: in vivo
[1] = after administration, light shielding required

Substance: Photofrin
- incorporation into tumor tissue relative to normal tissue (tumor tissue): about 4 times
- sunlight hypersensitivity as a complication [1]: cause sunlight hypersensitivity
